Assays:
Details in all cases: Compound concentration 1000.0 nM
[1] = tested on: Phosphatidylinositol 4,5-bisphosphate 3-kinase catalytic subunit alpha isoform (Homo sapiens), P42336 [E545A]
[2] = target: Serine/threonine-protein kinase MAK (Homo sapiens) (UniProt P20794)
[3] = target: Serine/threonine-protein kinase N2 (Homo sapiens) (UniProt Q16513)
[4] = tested on: Phosphatidylinositol 4,5-bisphosphate 3-kinase catalytic subunit alpha isoform (Homo sapiens), P42336 [E545K]
[5] = target: Dual specificity protein kinase CLK4 (Homo sapiens) (UniProt Q9HAZ1)
[6] = target: Serine/threonine-protein kinase MARK1 (Homo sapiens) (UniProt Q9P0L2)
[7] = target: Tyrosine-protein kinase receptor UFO (Homo sapiens) (UniProt P30530)
[8] = target: Serine/threonine-protein kinase mTOR (Homo sapiens) (UniProt P42345)
[9] = tested on: Epidermal growth factor receptor (Homo sapiens), P00533 [UNDEFINED MUTATION]
[10] = target: Cyclin-dependent kinase-like 3 (Homo sapiens) (UniProt Q8IVW4)
[11] = target: NUAK family SNF1-like kinase 2 (Homo sapiens) (UniProt Q9H093)
[12] = target: Serine/threonine-protein kinase 17B (Homo sapiens) (UniProt O94768)
[13] = target: Serine/threonine-protein kinase ICK (Homo sapiens) (UniProt Q9UPZ9)
[14] = target: cGMP-dependent protein kinase 2 (Homo sapiens) (UniProt Q13237)
cGMP-dependent protein kinase 2 (Homo sapiens), sequence (Q13237 whole entry): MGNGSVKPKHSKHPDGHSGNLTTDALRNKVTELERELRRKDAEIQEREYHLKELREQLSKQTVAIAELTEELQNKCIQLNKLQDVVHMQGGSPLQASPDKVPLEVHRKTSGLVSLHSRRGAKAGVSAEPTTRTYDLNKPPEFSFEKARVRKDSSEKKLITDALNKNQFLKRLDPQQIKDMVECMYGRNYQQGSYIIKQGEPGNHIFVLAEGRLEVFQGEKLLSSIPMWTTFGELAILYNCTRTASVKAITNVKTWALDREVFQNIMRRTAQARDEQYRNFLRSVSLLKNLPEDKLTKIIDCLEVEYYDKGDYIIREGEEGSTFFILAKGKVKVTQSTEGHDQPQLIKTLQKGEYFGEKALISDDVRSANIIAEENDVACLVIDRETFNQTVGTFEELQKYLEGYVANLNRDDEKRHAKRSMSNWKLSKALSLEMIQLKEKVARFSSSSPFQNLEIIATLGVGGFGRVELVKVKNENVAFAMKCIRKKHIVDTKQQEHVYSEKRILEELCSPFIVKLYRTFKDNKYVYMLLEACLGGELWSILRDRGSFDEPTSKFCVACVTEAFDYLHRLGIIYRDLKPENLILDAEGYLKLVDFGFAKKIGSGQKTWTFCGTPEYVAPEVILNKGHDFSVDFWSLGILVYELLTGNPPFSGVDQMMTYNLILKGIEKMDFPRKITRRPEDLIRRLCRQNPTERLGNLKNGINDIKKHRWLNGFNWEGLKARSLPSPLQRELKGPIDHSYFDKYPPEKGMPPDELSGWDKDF

[15] = target: Serine/threonine-protein kinase Nek5 (Homo sapiens) (UniProt Q6P3R8)
[16] = target: Proto-oncogene tyrosine-protein kinase ROS (Homo sapiens) (UniProt P08922)
[17] = tested on: Tyrosine-protein kinase ABL1 (Homo sapiens), P00519 [Q252H]
[18] = target: Serine/threonine-protein kinase ULK3 (Homo sapiens) (UniProt Q6PHR2)
[19] = tested on: Epidermal growth factor receptor (Homo sapiens), P00533 [G719S]
[20] = target: Calcium/calmodulin-dependent protein kinase type II subunit gamma (Homo sapiens) (UniProt Q13555)
[21] = target: Phosphatidylinositol 3-kinase catalytic subunit type 3 (Homo sapiens) (UniProt Q8NEB9)
[22] = target: Ankyrin repeat and protein kinase domain-containing protein 1 (Homo sapiens) (UniProt Q8NFD2)
[23] = target: Dual specificity tyrosine-phosphorylation-regulated kinase 1A (Homo sapiens) (UniProt Q13627)
[24] = target: Interleukin-1 receptor-associated kinase 3 (Homo sapiens) (UniProt Q9Y616)
[25] = target: Tyrosine-protein kinase Tec (Homo sapiens) (UniProt P42680)
[26] = target: Serine/threonine-protein kinase WNK2 (Homo sapiens) (UniProt Q9Y3S1)
Serine/threonine-protein kinase WNK2 (Homo sapiens), sequence (Q9Y3S1 whole entry): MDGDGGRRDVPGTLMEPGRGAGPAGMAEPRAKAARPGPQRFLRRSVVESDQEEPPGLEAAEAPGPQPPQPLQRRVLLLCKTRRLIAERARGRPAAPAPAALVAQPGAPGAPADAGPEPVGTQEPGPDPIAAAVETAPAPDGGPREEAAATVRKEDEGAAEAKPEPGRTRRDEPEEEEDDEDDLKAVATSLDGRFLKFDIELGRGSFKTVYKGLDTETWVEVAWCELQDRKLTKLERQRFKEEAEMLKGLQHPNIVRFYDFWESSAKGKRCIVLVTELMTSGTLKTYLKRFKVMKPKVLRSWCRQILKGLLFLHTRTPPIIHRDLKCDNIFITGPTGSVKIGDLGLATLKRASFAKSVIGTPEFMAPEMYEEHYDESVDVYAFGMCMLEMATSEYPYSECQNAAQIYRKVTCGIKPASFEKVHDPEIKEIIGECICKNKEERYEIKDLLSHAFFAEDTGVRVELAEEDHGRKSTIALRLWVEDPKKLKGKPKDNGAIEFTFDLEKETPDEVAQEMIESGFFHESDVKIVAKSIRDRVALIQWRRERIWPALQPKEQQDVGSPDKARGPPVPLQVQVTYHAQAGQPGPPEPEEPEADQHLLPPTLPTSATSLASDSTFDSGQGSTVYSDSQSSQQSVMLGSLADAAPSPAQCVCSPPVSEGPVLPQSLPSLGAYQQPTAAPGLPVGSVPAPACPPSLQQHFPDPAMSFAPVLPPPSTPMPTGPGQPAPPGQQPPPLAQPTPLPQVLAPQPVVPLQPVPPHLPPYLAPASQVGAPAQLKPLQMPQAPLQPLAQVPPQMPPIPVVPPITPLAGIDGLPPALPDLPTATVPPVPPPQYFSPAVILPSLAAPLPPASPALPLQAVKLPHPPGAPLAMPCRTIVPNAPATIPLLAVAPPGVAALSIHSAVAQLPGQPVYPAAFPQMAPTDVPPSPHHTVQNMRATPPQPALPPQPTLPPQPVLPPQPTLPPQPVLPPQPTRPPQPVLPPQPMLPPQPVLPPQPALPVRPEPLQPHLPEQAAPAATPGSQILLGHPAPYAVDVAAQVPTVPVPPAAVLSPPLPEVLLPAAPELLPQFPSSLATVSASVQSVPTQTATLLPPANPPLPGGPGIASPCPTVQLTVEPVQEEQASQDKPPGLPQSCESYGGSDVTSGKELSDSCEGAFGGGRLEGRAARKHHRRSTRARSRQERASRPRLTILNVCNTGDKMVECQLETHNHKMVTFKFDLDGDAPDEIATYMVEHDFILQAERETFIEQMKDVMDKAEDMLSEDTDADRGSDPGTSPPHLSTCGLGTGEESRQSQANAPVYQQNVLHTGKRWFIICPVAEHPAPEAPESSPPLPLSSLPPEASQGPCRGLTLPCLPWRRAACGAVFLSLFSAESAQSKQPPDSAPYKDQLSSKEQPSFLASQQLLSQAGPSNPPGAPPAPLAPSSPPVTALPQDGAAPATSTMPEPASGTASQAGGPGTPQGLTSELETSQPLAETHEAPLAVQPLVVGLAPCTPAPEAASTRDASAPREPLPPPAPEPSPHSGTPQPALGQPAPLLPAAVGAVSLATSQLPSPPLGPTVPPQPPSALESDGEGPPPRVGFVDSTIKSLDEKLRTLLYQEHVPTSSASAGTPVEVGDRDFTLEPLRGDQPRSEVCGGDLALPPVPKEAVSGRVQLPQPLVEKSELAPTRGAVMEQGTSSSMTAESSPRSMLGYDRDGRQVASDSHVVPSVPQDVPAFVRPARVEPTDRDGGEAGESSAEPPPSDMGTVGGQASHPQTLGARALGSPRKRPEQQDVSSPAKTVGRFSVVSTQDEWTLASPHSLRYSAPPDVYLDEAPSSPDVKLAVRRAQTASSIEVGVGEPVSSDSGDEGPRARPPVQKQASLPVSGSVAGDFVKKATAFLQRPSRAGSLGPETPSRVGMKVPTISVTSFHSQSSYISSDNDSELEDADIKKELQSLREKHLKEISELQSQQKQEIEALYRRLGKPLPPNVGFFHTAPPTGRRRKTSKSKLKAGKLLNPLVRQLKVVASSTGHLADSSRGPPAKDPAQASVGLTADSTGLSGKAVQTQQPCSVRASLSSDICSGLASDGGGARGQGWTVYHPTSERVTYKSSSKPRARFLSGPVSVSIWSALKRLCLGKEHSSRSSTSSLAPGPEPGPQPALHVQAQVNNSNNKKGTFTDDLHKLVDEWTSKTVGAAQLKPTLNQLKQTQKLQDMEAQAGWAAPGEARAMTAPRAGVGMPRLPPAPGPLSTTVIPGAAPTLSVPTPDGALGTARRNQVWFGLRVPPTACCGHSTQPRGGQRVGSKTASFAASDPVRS

[27] = target: NT-3 growth factor receptor (Homo sapiens) (UniProt Q16288)
[28] = target: Mitogen-activated protein kinase kinase kinase 4 (Homo sapiens) (UniProt Q9Y6R4)
[29] = target: Epithelial discoidin domain-containing receptor 1 (Homo sapiens) (UniProt Q08345)
[30] = target: Receptor-type tyrosine-protein kinase FLT3 (Homo sapiens) (UniProt P36888)
[31] = target: Insulin-like growth factor 1 receptor (Homo sapiens) (UniProt P08069)
[32] = tested on: Epidermal growth factor receptor (Homo sapiens), P00533 [T790M]
[33] = tested on: Receptor-type tyrosine-protein kinase FLT3 (Homo sapiens), P36888 [K663Q]
[34] = tested on: Tyrosine-protein kinase ABL1 (Homo sapiens), P00519 [H396P]
[35] = target: Cyclin-dependent kinase 2 (Homo sapiens) (UniProt P24941)
[36] = target: Ribosomal protein S6 kinase alpha-3 (Homo sapiens) (UniProt P51812)
[37] = target: Leukocyte tyrosine kinase receptor (Homo sapiens) (UniProt P29376)
Leukocyte tyrosine kinase receptor (Homo sapiens), sequence (P29376 whole entry): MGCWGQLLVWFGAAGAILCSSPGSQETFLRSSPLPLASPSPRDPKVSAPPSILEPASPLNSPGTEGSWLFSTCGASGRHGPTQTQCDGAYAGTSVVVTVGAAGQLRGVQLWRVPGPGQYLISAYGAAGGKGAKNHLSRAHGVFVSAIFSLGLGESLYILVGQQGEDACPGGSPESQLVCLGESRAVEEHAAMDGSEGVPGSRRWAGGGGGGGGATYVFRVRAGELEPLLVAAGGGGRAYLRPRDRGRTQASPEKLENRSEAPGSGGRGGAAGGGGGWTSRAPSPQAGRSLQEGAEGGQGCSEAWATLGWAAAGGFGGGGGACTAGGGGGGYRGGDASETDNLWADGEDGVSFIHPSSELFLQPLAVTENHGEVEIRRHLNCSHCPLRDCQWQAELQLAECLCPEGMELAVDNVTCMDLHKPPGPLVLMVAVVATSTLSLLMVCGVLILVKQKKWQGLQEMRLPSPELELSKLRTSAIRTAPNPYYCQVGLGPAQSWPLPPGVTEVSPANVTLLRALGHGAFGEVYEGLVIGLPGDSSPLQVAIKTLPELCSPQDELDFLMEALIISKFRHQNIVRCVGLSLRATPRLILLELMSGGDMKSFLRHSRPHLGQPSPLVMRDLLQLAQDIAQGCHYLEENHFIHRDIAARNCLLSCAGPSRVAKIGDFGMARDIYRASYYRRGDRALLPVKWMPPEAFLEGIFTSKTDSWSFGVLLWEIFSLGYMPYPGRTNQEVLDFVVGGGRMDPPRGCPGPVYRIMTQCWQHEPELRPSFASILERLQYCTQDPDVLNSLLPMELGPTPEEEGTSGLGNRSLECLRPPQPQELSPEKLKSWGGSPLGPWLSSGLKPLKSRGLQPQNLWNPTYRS

[38] = target: Wee1-like protein kinase (Homo sapiens) (UniProt P30291)
[39] = target: Cyclin-dependent kinase 4 (Homo sapiens) (UniProt P11802)
[40] = target: Ephrin type-B receptor 3 (Homo sapiens) (UniProt P54753)
[41] = target: Serine/threonine-protein kinase PknB (Mycobacterium tuberculosis) (UniProt P9WI81)
[42] = target: STE20/SPS1-related proline-alanine-rich protein kinase (Homo sapiens) (UniProt Q9UEW8)
[43] = target: Non-receptor tyrosine-protein kinase TYK2 (Homo sapiens) (UniProt P29597)
[44] = target: Tyrosine-protein kinase ITK/TSK (Homo sapiens) (UniProt Q08881)
[45] = target: Tyrosine-protein kinase JAK3 (Homo sapiens) (UniProt P52333)
Tyrosine-protein kinase JAK3 (Homo sapiens), sequence (P52333 whole entry): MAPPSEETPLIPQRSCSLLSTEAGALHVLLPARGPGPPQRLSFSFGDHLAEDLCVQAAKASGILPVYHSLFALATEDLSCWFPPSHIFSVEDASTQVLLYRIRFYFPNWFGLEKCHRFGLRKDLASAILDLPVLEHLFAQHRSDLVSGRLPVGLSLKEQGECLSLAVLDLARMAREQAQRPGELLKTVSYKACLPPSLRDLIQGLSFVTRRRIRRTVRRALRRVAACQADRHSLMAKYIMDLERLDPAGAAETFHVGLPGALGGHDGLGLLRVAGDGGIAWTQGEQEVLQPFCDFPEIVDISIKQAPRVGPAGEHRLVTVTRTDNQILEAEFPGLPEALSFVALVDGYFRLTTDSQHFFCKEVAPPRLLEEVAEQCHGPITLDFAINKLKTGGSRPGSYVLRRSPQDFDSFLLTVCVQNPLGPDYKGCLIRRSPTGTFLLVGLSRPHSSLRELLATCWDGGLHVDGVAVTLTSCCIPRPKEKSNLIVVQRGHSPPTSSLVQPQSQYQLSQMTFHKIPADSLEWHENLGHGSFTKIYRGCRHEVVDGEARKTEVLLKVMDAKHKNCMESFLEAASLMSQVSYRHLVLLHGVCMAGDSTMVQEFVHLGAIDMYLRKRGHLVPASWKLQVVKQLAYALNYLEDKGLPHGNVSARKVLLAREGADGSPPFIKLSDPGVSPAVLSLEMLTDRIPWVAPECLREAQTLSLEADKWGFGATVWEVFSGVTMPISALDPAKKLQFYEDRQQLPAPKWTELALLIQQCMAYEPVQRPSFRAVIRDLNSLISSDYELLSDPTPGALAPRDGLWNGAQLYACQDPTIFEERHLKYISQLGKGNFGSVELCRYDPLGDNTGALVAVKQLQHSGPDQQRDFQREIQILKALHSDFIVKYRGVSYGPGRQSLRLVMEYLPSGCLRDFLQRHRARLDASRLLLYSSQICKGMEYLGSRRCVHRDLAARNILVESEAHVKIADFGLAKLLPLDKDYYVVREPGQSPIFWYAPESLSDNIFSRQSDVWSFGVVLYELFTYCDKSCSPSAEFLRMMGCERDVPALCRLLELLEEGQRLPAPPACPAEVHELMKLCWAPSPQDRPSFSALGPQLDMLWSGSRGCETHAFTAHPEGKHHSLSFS

`C[C@H](NC(=O)c1cnc2n1[C@](C)(Cc1ccc(C#N)cc1)C(=O)N2c1cc(Cl)c(F)c(Cl)c1)C(=O)NC1(c2ccccn2)CC1` [BI 1950] showed a residual activity [1] of 100%, a residual activity [2] of 100% and a residual activity [3] of 63%. The residual activity [4] was 100%, the residual activity [5] was 88% and the residual activity [6] was 100%. For the same molecule, the residual activity [7] was 100%, the residual activity [8] was 96% and the residual activity [9] was 100%. The residual activity [10] was 100%, the residual activity [11] was 100% and the residual activity [12] was 100%. For the same molecule, the residual activity [13] was 100%, the residual activity [14] was 85% and the residual activity [15] was 100%. For the same molecule, the residual activity [16] was 100%, the residual activity [17] was 90% and the residual activity [18] was 100%. It also gave a residual activity [19] of 100%, a residual activity [20] of 100% and a residual activity [21] of 100%. For the same molecule, the residual activity [22] was 100%, the residual activity [23] was 100% and the residual activity [24] was 100%. It also gave a residual activity [25] of 75%, a residual activity [26] of 100% and a residual activity [27] of 100%. It also gave a residual activity [28] of 97%, a residual activity [29] of 100% and a residual activity [30] of 100%. The residual activity [31] was 99%, the residual activity [32] was 95% and the residual activity [33] was 100%. The residual activity [34] was 91%, the residual activity [35] was 100% and the residual activity [36] was 100%. The residual activity [37] was 100%, the residual activity [38] was 100% and the residual activity [39] was 100%. For the same molecule, the residual activity [40] was 100%, the residual activity [41] was 100% and the residual activity [42] was 24%. The residual activity [43] was 100%, the residual activity [44] was 83% and the residual activity [45] was 100%.
`C[C@@]1(Cc2ccc(C#N)cc2)C(=O)N(c2cc(Cl)cc(Cl)c2)c2ncc(C(=O)NC3(c4nc(C5CCC5)no4)CC3)n21` [BI 9446] showed a residual activity [1] of 100%, a residual activity [2] of 100% and a residual activity [3] of 100%. It also gave a residual activity [4] of 94%, a residual activity [5] of 97% and a residual activity [6] of 100%. For the same molecule, the residual activity [7] was 100%, the residual activity [8] was 91% and the residual activity [9] was 100%. For the same molecule, the residual activity [10] was 100%, the residual activity [11] was 100% and the residual activity [12] was 100%. It also gave a residual activity [13] of 100%, a residual activity [14] of 100% and a residual activity [15] of 100%. It also gave a residual activity [16] of 100%, a residual activity [17] of 89% and a residual activity [18] of 100%. For the same molecule, the residual activity [19] was 99%, the residual activity [20] was 100% and the residual activity [21] was 100%. It also gave a residual activity [22] of 100%, a residual activity [23] of 99% and a residual activity [24] of 100%. It also gave a residual activity [25] of 92%, a residual activity [26] of 100% and a residual activity [27] of 100%. For the same molecule, the residual activity [28] was 100%, the residual activity [29] was 81% and the residual activity [30] was 98%. The residual activity [31] was 100%, the residual activity [32] was 86% and the residual activity [33] was 100%. The residual activity [34] was 96%, the residual activity [35] was 100% and the residual activity [36] was 100%. The residual activity [37] was 100%, the residual activity [38] was 100% and the residual activity [39] was 100%. It also gave a residual activity [40] of 99%, a residual activity [41] of 96% and a residual activity [42] of 91%. The residual activity [43] was 100%, the residual activity [44] was 92% and the residual activity [45] was 100%.
